Source: patent US20260308158A1, “TARGETING RNAS ASSOCIATED WITH TAUOPATHIES WITH SMALL MOLECULES” (University of Florida Research Foundation, Incorporated, priority 2023, published 2026)

How the values were obtained:
[1] = Body weight / tolerability, WT mice; format: in vivo, WT mouse (C57BL/6J); conditions: 100 mg/kg p.o. q.o.d., 20 days
Excerpt: hTau Mice Studies. htau mice and WT mice (C57BL/6J) were purchased from Jackson Laboratories. htau mice were maintained in-house through breeding between htau+/− mice. Genotype was confirmed by PCR amplification as previously described.^18 Only homozygous mice were used in in vivo studies. Mice were randomly assigned to a treatment group, which were age- and gender-matched (n=X). In these studies, mice were >9 months of age since cognitive and physiological impairments in htau mice was age-dependent and were not presented in young mice (<4 months) with early-stage tau pathology.^42 Mice were orally administered vehicle (5/5/90 DMSO/Tween-80/H2O) or 100 mg/kg of 2 in the same formulation every other day (q.o.d.). During the treatment period, nesting activity was assessed, as describe in Nesting Activity below. After 20 days, the mice were euthanized (in accordance with guidelines provided by the American Veterinarian Medical Association), and the brain was harvested for analysis. One hemisphere of the brain was frozen at −80° C. for RT-qPCR analyses while the other was used for histological studies.

WT SRE RNA = assay: In vitro competitive Chem-CLIP (C-Chem-CLIP), WT SRE RNA; conditions: 3 at 1.5 μM, read-out: IC50, competition of the binding of 3
Procedure: In Vitro Chemical Cross-linking and Isolation by Pull Down (Chem-CLIP) and Competitive Chem-CLIP (C-Chem-CLIP). Growth medium [Dulbecco's modified eagle medium (DMEM; corning, 10-013-CM) with 1× Glutagro (corning)] and 10% (v/v) fetal bovine serum (FBS; Sigma, 12003C) was inactivated by heating at 95° C. for 15 min and slowly cooling to room temperature. Approximately 10,000 counts of 32P 5′-end labeled tau WT, DDPAC, WT+I17T, or DDPAC+I17T RNA were folded in 10 μL growth medium by heating at 65° C. for 5 min and slowly cooling to room temperature. Chem-CLIP probe 3 or negative control probe 4 was then added into the folded RNA in a total volume of 20 μL, and the mixtures were incubated at 37° C. for 1 h. For C-Chem-CLIP, dilutions of competing compound 2 were incubated with RNA for 30 min before adding 3. […]
The Chem-CLIP probe 3 or control probe 4 was then clicked to disulfide biotin azide (2 μL of 10 mM solution prepared in DMSO solution per sample; Click Chemistry Tools, catalog no. 1168-10). […] The radioactive signal from bound RNAs (on the beads) and unbound RNAs (in the wash buffer) was measured by using a Beckman Coulter LS6500 Liquid Scintillation Counter as Rbound and Runbound. Enrichment was calculated as the percentage of radiolabeled RNA captured by beads calculated as Rbound/(Rbound+Runbound).

DDPAC I17T mutant RNA = assay: Fluorescent binding affinity, DDPAC I17T mutant RNA
Procedure: Fluorescent Binding Affinity Measurements. Binding assays were completed as previously described.^30 Briefly, the RNA of interest was folded in 1× Assay Buffer-1 (AB1: 8 mM Na2HPO4, pH 7.0, 185 mM NaCl, and 1 mM EDTA) by heating at 95° C. for 30 s followed by slowly cooling to room temperature. Bovine serum albumin (BSA) was then added to a final concentration of 40 μg/mL to afford 1× Assay Buffer-2 (AB2: 8 mM Na2HPO4, pH 7.0, 185 mM NaCl, 1 mM EDTA, and 40 μg/mL BSA). The RNA solution was serial diluted with 1×AB2. Then, compound of interest was added to the RNA solutions to a final concentration of 0.5 μM. […] Fluorescence intensity was measured using a Tecan Plate Reader (Gain: 100, Integration time: 40 μs). […] The change in fluorescence of the small molecule was calculated by its comparison to samples lacking RNA. Binding affinity was calculated using Equation 1, as previously described:^30
where I and I0 are the measured fluorescence intensity of the compound with or without RNA, respectively, Δε is the difference between the fluorescence intensity with the infinite concentration of RNA and the fluorescence intensity without RNA, [SM]0 and [RNA]0 are the concentrations of the small molecule (SM) and RNA, respectively, and Kd is the dissociation constant.

IC50 (WT SRE RNA): ~2 µM
Kd (estimated; no saturable binding) (DDPAC I17T mutant RNA): > 50 µM
Compound: COc1cc(N)ncc1CCCN(C)CCCn1cnc2c3ccccc3n(C)c2c1=O [Compound 2, 3-(3-((3-(6-amino-4-methoxypyridin-3-yl)propyl)(methyl)amino)propyl)-5-methyl-3,5-dihydro-4H-pyrimido[5,4-b]indol-4-one]
change in weight [1]: no change in the weight
